# Where a name gives a salt, the structure may show the parent alone. Read-outs that look alike come from different tables or passages of the source.
# How the values were obtained:
# [1] = system: mice; assay: Hot plate test (intravenous administration); type: in vivo, mouse; conditions: 10 mg/kg i.v.
# Description: Male albino inbred mice supplied by Charles River [CD-1 (ICR)BR] weighing between 20 and 30 grams were used. The mice were placed on a 55° C. hot plate 60, 40, and 20 minutes prior to drug administration and the latencies to the lick of a paw or to a jump were recorded. Mice not responding within 15 seconds were discarded from the study. The test compound or vehicle was then administered intravenously and the animals' response latencies on the hot plate were recorded again 10, 30 and 60 minutes later. The initial test dose was 10 mg/kg. Mice not responding within 30 seconds were removed from the hot plate to prevent tissue damage and assigned the cut-off value of 30 seconds. Elevation of the response latencies to greater than twice the median of the three pre-drug latency measurements was indicative of analgesia. For each time point, the data were expressed as the number of animals having analgesic response latencies out of the total number tested. The number of analgesic animals in the test compound-treated group was then compared with the number of analgesic animals in the vehicle-treated group at each time point using Fisher's Exact Probability Test. S. Siegel, Nonparametric Statistics for the Behavioral Sciences. McGraw-Hill, New York, pp. 96-104 (1956 ). […]
# [2] = system: mice; assay: Combined tail flick and hot plate tests: tail flick; type: in vivo, mouse; conditions: for ED50: Mus musculus, combined tail flick/hot plate; for activity in tail flick test: oral and subcutaneous, prior art at doses as great as 100 mg/kg p.o. and 50 mg/kg s.c.
# Description: Male albino inbred mice supplied by Charles River (CD-1/HAM/1LR) weighing between 20 and 30 grams were used. Analgesia was first measured using the tail flick test in which a high intensity beam of light was focused on the blackened tail. The interval of time between onset of the light and reflex removal of the tail was defined as the tail flick latency. The average of two successive determinations was recorded. Following tail flick determination, the animals were immediately placed on a 55° C. copper hot plate to which they were restricted by an inverted 600 ml glass beaker. Hot plate latency was defined as the interval between placement on the hot plate and a behavioral response of either a jump or a hindpaw lick. One determination was recorded. Mice not responding within 4.0 seconds on the tail flick and 20.0 seconds on the hot plate were discarded from the study. The tail flick test and the hot plate test were stopped after 12.0 and 40 seconds, respectively, had elapsed to prevent tissue damage. After determination of pre-injection baseline latencies, the test compound was dissolved in distilled water and administered either orally or subcutaneously (0.1 ml/10 gram body weight). Tail flick and hot plate latencies were measured 10, 30, 60 and 90 minutes after injection. One-way analyses of variance were used to detect any significant increase in tail flick and hot plate latencies (indicative of analgesia) as compared to latencies prior to drug adminstration, as well as to establish the dose-dependence of any effect. A linear regression method (least squares) was used to determine the line of best fit. The ED50 dose was determined to be that dose of test compound that produced one-half the maximum measurable increase in latency. This corresponded to a post-drug tail flick latency of 7.5 seconds and hot plate latency of 25 seconds. G. Keppel: Design and analysis: a researcher's handbook, New Jersey, Prentice-Hall, 1973.
# [3] = system: rat cholera model; assay: Cholera-induced intestinal fluid secretion (rat cholera model); type: in vivo
# Description: The rat cholera model was used to determine the effect of the test compounds on intestinal fluid movements. (H. I. Jacoby and C. H. Marshall, Antagonism of Cholera Enterotoxin by Anti-inflammatory Agents in the Rat. Nature, 235, 163-165, 1972). Female Charles River rats weighing 85-100 grams and having free access to water were fasted for 24 hours prior to each experiment. After a midline incision was made under ether anesthesia, a 20-cm ligated small intestinal segment was constructed starting 3 cm distal to the ligament of Treitz. Each segment was injected, using a 27 gauge 1/2-inch needle, with crude cholera toxin in a 0.9% saline solution. Thirty minutes before cholera toxin was injected, test compounds were administered subcutaneously to groups of four rats at doses of 10 and 20 mg/kg. Four hours after injection of toxin, the animals were sacrificed and the fluid content and exact length of the intestinal segments were measured. Fluid secretion was expressed in ml/cm of intestine.
# The ID50 's of these compounds were estimated using data obtained from at least two doses and at least two experiments by the method of maximum likelihood. R. A. Fischer. "Principles of Statistical Estimation." in Statistical Methods for Research Workers, 14th ed. Hafner: New York; pp. 301-339. […]
# [4] = system: spontaneous hypertensive rats (SHR); assay: Hypertensive test in spontaneous hypertensive rats (SHR); type: in vivo, rat; design: key to Antihypertensive Properties, Result: Active: Any compound that resulted in a decrease in arterial blood pressure of 20 mm Hg or greater was considered active; conditions: for Antihypertensive Properties, Result: Table 3, 10 mg/kg intravenously, one unanesthetized male SHR
# Description: A compound's ability to act as an antihypertensive agent was determined using spontaneous hypertensive rats (SHR). Male SHR were maintained in-house for 1 or more weeks before use and were between 11 and 16 weeks old. The test compound was administered intravenously and the initial mean arterial blood pressure was measured directly via an arterial catheter implanted immediately before administration of the compound. Blood pressure readings were made 5, 10 and 15 minutes after administration of the compound. […] Statistical comparisons were made using the unpaired student's test.
# The following compounds of the invention were evaluated for their antihypertensive properties using the spontaneous hypertensive rat (SHR). […] The SHR test was essentially that described earlier. Each compound listed in Table 3, was administered intravenously to one unanesthetized, male, spontaneously hypertensive rat; the dosage was 10 mg/kg.
Compound,Hot Plate (I.V.) 10 mg/kg: rating and animals with analgesic latencies / tested [1],"ED50 ([2]; po, p.o., read-out: Tail Flick (ED50) p.o.)","ED50 ([2]; sc, s.c., read-out: Tail Flick (ED50) s.c.)",activity in tail flick test [2],"ED50 ([3]; Rattus norvegicus, sc, read-out: Rat Cholera Test (ED50))","SHR Blood Pressure, dose printed (active at) ([4]; Table 2, i.v.)","Antihypertensive Properties, Result [4]","Tail Flick, activity at stated dose s.c. ([2]; 50 mg/kg s.c.)","Tail Flick, activity at stated dose p.o. ([2]; 100 mg/kg p.o.)","Rat Cholera Test, activity at stated dose ([3]; 20 mg/kg s.c.)","SHR Blood Pressure, activity at stated dose ([4]; Table 2, 10 mg/kg i.v.)"
"Cc1cc(O)cc(C)c1C[C@H](N)C(=O)N[C@H](C)C(=O)NCCCc1ccccc1 [Example 5, 2,6-dimethyltyrosyl-N-(3-phenylpropyl)-D-alaninamide, hydrochloride]",Active 6/7,115 mg/kg,35 mg/kg,active,6.1 mg/kg,1 mg/kg,Active,,,,
"tyrosine-D-alanine-phenylpropylamide [Prior Art, reference compound]",Inactive 0/10,,,not active,,,Active,Inactive,Inactive,Inactive,Active

# — patent US4599325A, “Substituted tyrosyl alanine dipeptide amides” (G. D. Searle & Co., priority 1985, dated 1986)
